# Reference: PMC3901259, “Characterisation of the Metabolites of 1,8-Cineole Transferred into Human Milk: Concentrations and Ratio of Enantiomers” (Metabolites, 2013)
# Assay: Determination of the ratios of enantiomers of chiral metabolites in human milk on chiral GC capillaries
# Assay type: in vivo
# Method in brief: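 Milk extracts analysed by GC-MS on cyclodextrin chiral capillaries: Rt-bDEXsm for 2,3-dehydro-, α2,3-epoxy-, 2-oxo-, 3-oxo- and 9-hydroxy-1,8-cineole, Rt-yDEXsa for α2-, α3- and β2-hydroxy-1,8-cineole. Enantiomer ratio = each enantiomer's peak area over summed pair area ×100; absolute enantiomer concentrations from known metabolite concentrations.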
smiles,measurement,setting,value
"CC1(C)OC2(C)CCC1CC2O (stereo not drawn) [a2-hydroxy-1,8-cineole, α2-hydroxy-1,8-cineole]",Enantiomeric ratio in human milk,,nearly enantiomerically pure
same,Percentage E1 in single sample (outlier),"human milk sample B-2a, excluded from Table 3",40.5%
same,"Percentage E1, range as described for boxplot","human milk samples, Figure 5",under 10%
